From patent US5561131A, “Defaunation method” (Mallinckrodt Veterinary, Inc., priority 1991, dated 1996)

system: mice; test: Mouse safety assessment; assay type: in vivo; settings: oral gavage, 830, 415 and 217 mg/kg, observed for 2 days
Experimental: Compounds of Table 1 chosen for testing in sheep were first tested in mice for signs of toxicity. Because sheep are approximately 5 times more sensitive than mice to compounds dosed orally, the dose rates applied to mice were 5 times greater than the target dose rate of 500 ppm. in rumen liquor (83 mg/kg live weight) used for sheep. Each compound was screened at three different dose levels, high (830 mg/kg), medium (415 mg/kg) and low (217 mg/kg).
252 mg of compound was used for dilution into a high medium and low dose rate. 252 mg of compound was mixed with 3 ml of G1284 solution (4% w/v ethoxylated castor oil and 0.05% w/v simethicone), to form the high dose composition. The medium dose composition was formed by diluting 1.5 ml of the high dose with 1.5 ml of G1284 solution. The low dose composition was formed by diluting 1.5 ml of the medium dose with 1.5 ml of G1284 solution. Before the high dose could be diluted it was first manually ball milled in an effort to produce a fine suspension of the compound.
All mice were weighed before dosing to calculate the appropriate dose rate. The calculation for dose rate was: [formula]
Each mouse was dosed using the Gavage method. With this method the mouse is dosed orally by way of an angled hypodermic needle (18 g) with a smooth spherical end. It is gently placed down the esophagus. All care must be taken not to force the needle and injure the esophagus or dose into the lungs.
Observations were made at 10, 30, 60 and 120 minutes after dosing, then every 1 or 2 hours for the first 6 hours.
Mice were usually observed for 2 days.
Typically, few compounds fell within the poor classification. The majority of compounds tested were either in the fair or good classification.

**Q.** For Cc1ccc(Nc2nc(Cl)nc(Cl)n2)cc1 [Compound 6], which “Mouse Safety Assessment” value is on record?
**A.** Poor (death at 840 mg/kg)

**Q.** For Cc1ccc(Nc2nc(Cl)nc(Cl)n2)cc1C [Compound 10], which “Mouse Safety Assessment” value is on record?
**A.** Fair (>2 mice sick)

**Q.** With Clc1nc(Cl)nc(Nc2ccc(Cl)c(Cl)c2)n1 [Compound 7] as the compound, how does the “Mouse Safety Assessment” value read?
**A.** Fair (>2 mice sick)

**Q.** With COc1ccc(Nc2nc(Cl)nc(Cl)n2)cc1 [Compound 5] as the compound, how does the “Mouse Safety Assessment” value read?
**A.** Good

system: rumen ciliate protozoa; test: In vitro activity of defaunation compounds against rumen ciliate protozoa; assay type: cell-based; settings: 39° C., anaerobic, 3 hours, tested at 50, 150, 250 and 500 ppm
Experimental: Compounds of Table 1 were tested for their toxicity against rumen ciliate protozoa by firstly isolating protozoa from rumen liquor collected from faunated animals. The rumen liquor was then centrifuged at 500 g for five minutes and the supernatant discarded. The protozoal-rich sediment was then reconstituted in McDougal's artificial saliva. Residual bacteria were suppressed by using a combination of two antibiotics at low concentration. Nitrogen and energy substrate was optimized for the protozoal preparation. At all times the protozoal preparation was maintained at 39° C. and kept anaerobic.
Sixty milligrams of each the compounds of Table 1 were dissolved in 1.2 ml of dimethyl sulphoxide and dispersed in triplicate to achieve a final concentration of 50, 150, 250 and 500 ppm. Ten milliliters of protozoal preparation was then added to each tube. After every second compound, control tubes were included which contained everything except for compound. The tubes, to which a 5 ml glass syringe was attached, were then incubated for 3 hours in a water bath at 39° C. The production of gas causes the syringe plunger to be displaced.
At the end of the incubation period, the volume of gas produced was recorded and the viability of the protozoa assessed visually using a microscope. The toxicity of the compounds to protozoa was assessed from both the reduction in gas produced relative to the control and by direct observation of the protozoa for movement of cilia.

**Q.** Which “Conc Required to Kill all Protozoa” value does the source give for Cc1ccc(Nc2nc(Cl)nc(Cl)n2)cc1 [Compound 6] here?
**A.** 150 ppm

**Q.** Which “Conc Required to Kill all Protozoa” value does the source give for Cc1ccc(Nc2nc(Cl)nc(Cl)n2)cc1C [Compound 10] here?
**A.** 250 ppm

**Q.** Which “Conc Required to Kill all Protozoa” value does the source give for Clc1nc(Cl)nc(Nc2ccc(Cl)c(Cl)c2)n1 [Compound 7] here?
**A.** 250 ppm

**Q.** Which “Conc Required to Kill all Protozoa” value does the source give for COc1ccc(Nc2nc(Cl)nc(Cl)n2)cc1 [Compound 5] here?
**A.** 250 ppm

system: rumen bacteria; test: In vitro bacterial gas inhibition; assay type: cell-based; settings: at the concentration known to kill protozoa
Experimental: Compounds of Table 1 were also tested for toxicity bacteria. This involved removing protozoa from rumen liquor by centrifugation at 2,000 g for 5 minutes and collecting the bacterial rich supernatant. Nitrogen and energy substrate was added to the bacterial preparation which was then dispensed in triplicate 10 ml volumes over the same range of compound concentrations (50, 150, 250 and 500 ppm.) referred to in Example 2. Control tubes were placed after every second compound to enable the inhibition of gas resulting from the compound to be assessed. […] It can be seen that these compounds are selective in their mode of action, in that they are more toxic to protozoa than bacteria.

**Q.** For Cc1ccc(Nc2nc(Cl)nc(Cl)n2)cc1 [Compound 6], which “Bact. Gas Inhibition at the conc. required to kill protozoa” value (“Bact. Gas Inhibition” for short) is on record?
**A.** 40

**Q.** Which “Bact. Gas Inhibition” value does the source give for Cc1ccc(Nc2nc(Cl)nc(Cl)n2)cc1C [Compound 10] here?
**A.** 55

**Q.** For Clc1nc(Cl)nc(Nc2ccc(Cl)c(Cl)c2)n1 [Compound 7], which “Bact. Gas Inhibition” value is on record?
**A.** 30

**Q.** With COc1ccc(Nc2nc(Cl)nc(Cl)n2)cc1 [Compound 5] as the compound, how does the “Bact. Gas Inhibition” value read?
**A.** 33

system: rumen ciliate protozoa; test: Protozoal reduction in sheep; assay type: in vivo; set-up: concentration or dose not given beside the values; settings: one week after dosing, relative to predosing numbers
Experimental: Defaunation compositions were prepared according to the method of Example 1.
Prior to dosing of the compound, a sample of rumen liquor (200 ml) was withdrawn to establish basal numbers of protozoa.
The sample was collected using a stomach tube, inserted into the rumen via a rumen cannula (fistulated animals) or per esophagus (intact animals). After straining the sample was well mixed using a magnetic stirrer and a 0.5 ml sample was withdrawn and added to 49.5 ml of a crystal violet stain. Protozoa were counted using a microscope and a Hawksley counting chamber.
One week after administering the compound, another rumen liquor sample was collected (as described above) and examined for the presence of protozoa. Where rumen ciliate protozoa were undetectable, a reduction or inhibition value of 100% was recorded. In general, most compounds expressed a strong inhibitory effect on protozoal populations.

**Q.** For Cc1ccc(Nc2nc(Cl)nc(Cl)n2)cc1 [Compound 6], which “Protozoal Reduction” value is on record?
**A.** 100%

**Q.** With Cc1ccc(Nc2nc(Cl)nc(Cl)n2)cc1C [Compound 10] as the compound, how does the “Protozoal Reduction” value read?
**A.** 100%

**Q.** With Clc1nc(Cl)nc(Nc2ccc(Cl)c(Cl)c2)n1 [Compound 7] as the compound, how does the “Protozoal Reduction” value read?
**A.** 100%

**Q.** Which “Protozoal Reduction” value does the source give for COc1ccc(Nc2nc(Cl)nc(Cl)n2)cc1 [Compound 5] here?
**A.** 100%

system: rumen bacteria; test: Bacterial viability in sheep after administering defaunation compounds; assay type: in vivo; settings: gas production one week after dosing vs pre-dosing
Experimental: In order to establish what effect the compounds had on the viability of rumen bacteria, a sample of rumen liquor was collected prior to dosing of the compound. The sample was withdrawn under vacuum using a pre-warmed tube inserted into the rumen through a rumen cannula. The sample was collected in a pre-warmed (39° C.) flask, gassed with carbon dioxide and covered. Two-pre-warmed 30 ml centrifuge tubes were then filled with well mixed rumen liquor and centrifuged at 2000 rpm for 5 minutes. Half the volume of each tube was then poured into another pre-warmed tube without disturbing the sediment. Three lots of 10 ml of this rumen liquor were then pipetted into 15 ml tubes which contained 10 μL of urea solution (40% w/v and 300 μL of glucose solution (50% w/v). The urea and glucose acted as substrate for the bacteria. The tubes were then gassed with carbon dioxide, stoppered and placed in a water bath at 39° C. After 10 minutes a 5 ml glass syringe was secured into the stoppers (through which a hypodermic needle had been inserted) and the gas collected for five hours and recorded.
This bacterial viability measure was then repeated one week after dosing with each of the compounds referred to in Table 1. Defaunation compositions were prepared according to the method of Example 1. The amount of gas produced was then compared with the pre-dosing level. The criterion for classifying post-dosing bacterial viability is shown below:
Poor--reduction in post-dosing gas production relative to pre-dosing levels.
OK--post-dosing gas production the same as pre-dosing levels.
Good--increase in post-dosing gas production relative to pre-dosing levels.

**Q.** Which “Bacterial Viability” value does the source give for Cc1ccc(Nc2nc(Cl)nc(Cl)n2)cc1 [Compound 6] here?
**A.** Okay

**Q.** With Cc1ccc(Nc2nc(Cl)nc(Cl)n2)cc1C [Compound 10] as the compound, how does the “Bacterial Viability” value read?
**A.** Good

**Q.** With Clc1nc(Cl)nc(Nc2ccc(Cl)c(Cl)c2)n1 [Compound 7] as the compound, how does the “Bacterial Viability” value read?
**A.** Poor

**Q.** Which “Bacterial Viability” value does the source give for COc1ccc(Nc2nc(Cl)nc(Cl)n2)cc1 [Compound 5] here?
**A.** Poor

system: not listed separately; test: Effect of defaunation compounds on feed intake of sheep; assay type: in vivo; settings: after dosing vs pre-dosing intake
Experimental: Sheep were allowed a minimum of three weeks to adapt to their ration of 900 g of oaten chaff and 100 g of Lucerne chaff. The pre-dosing level of intake for each animal was established from the mean of five days intake immediately prior to dosing. Any effects of administering the compound on feed intake was then determined by measuring the level of feed intake after dosing.
The criteria of classifying the effect on food intake are shown below.
Poor--greater than 50% reduction in feed intake during the first week after dosing.
Fair--greater than 50% reduction in feed intake on the day following dosing but less then 50% reduction one week after dosing.
OK--transient drop in feed intake which is less than 50% on the day after dosing.
Good--No reduction in feed intake following dosing.

**Q.** For Cc1ccc(Nc2nc(Cl)nc(Cl)n2)cc1 [Compound 6], which “Feed Intake” value is on record?
**A.** Okay (transient drop, less than 50% at day 2)

**Q.** Which “Feed Intake” value does the source give for Cc1ccc(Nc2nc(Cl)nc(Cl)n2)cc1C [Compound 10] here?
**A.** Good

**Q.** With Clc1nc(Cl)nc(Nc2ccc(Cl)c(Cl)c2)n1 [Compound 7] as the compound, how does the “Feed Intake” value read?
**A.** Poor (greater than 50% reduction between day 2 to day 8)

**Q.** With COc1ccc(Nc2nc(Cl)nc(Cl)n2)cc1 [Compound 5] as the compound, how does the “Feed Intake” value read?
**A.** Fair
